Test results reported in the supplement of paper PMC10627819.

Experiments:
B. subtilis 168 [1] = assay: fitness (endpoint OD595 vs no drug) (fraction); higher = more growth
Procedure, shortened: (§1)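 Background-subtracted growth curves were the basis for fitness, taken as the optical density at entry into stationary phase over the robust mean of no-drug control wells. A cap of 1 was applied. The curves came from OD595 readings every 30 min for 14 h at 37 °C, in 384-well plates seeded at OD595 0.01 with 30 µl, or 55 µl for S. pneumoniae.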

S. aureus DSM 20231 [2] = assay: as above
Procedure, shortened: as §1

S. pneumoniae D39V [3] = assay: as above
Procedure, shortened: as §1

B. subtilis 168 [4] = assay: Bliss interaction score (quartile over a dose matrix) (fitness difference); higher = more antagonism (negative = synergy)
Procedure, shortened: (§2)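 Fitness was defined as normalised growth: OD595 at the start of stationary phase divided by the plate's robust no-drug mean and capped at 1. Single-drug fitness was inferred from combination measurements. The Bliss score is observed fitness minus the product of the single-drug values, summarised by quartiles across technical, biological and donor/recipient replicates.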

S. aureus Newman = assay: as above
Procedure, shortened: as §2

S. aureus DSM 20231 [5] = assay: as above
Procedure, shortened: as §2

S. pneumoniae D39V [6] = assay: as above
Procedure, shortened: as §2

[7] = first compound 0.1 µg/mL, partner 0.0625 µg/mL
[8] = first compound 0.1 µg/mL, partner 0.125 µg/mL
[9] = first compound 0.1 µg/mL, partner 0.25 µg/mL
[10] = first compound 0.2 µg/mL, partner 0.0625 µg/mL
[11] = first compound 0.2 µg/mL, partner 0.125 µg/mL
[12] = first compound 0.2 µg/mL, partner 0.25 µg/mL
[13] = first compound 0.4 µg/mL, partner 0.0625 µg/mL
[14] = first compound 0.4 µg/mL, partner 0.125 µg/mL
[15] = first compound 0.4 µg/mL, partner 0.25 µg/mL
[16] = first compound 0.2 µg/mL, partner 0.5 µg/mL, one replicate
[17] = first compound 0.2 µg/mL, partner 1 µg/mL, one replicate
[18] = first compound 0.4 µg/mL, partner 0.5 µg/mL, one replicate
[19] = first compound 0.4 µg/mL, partner 1 µg/mL, one replicate
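Wherever Bliss interaction score (quartile over a dose matrix) is given: first quartile when negative (synergy) and third quartile when positive (antagonism).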

Question: Which fitness (B. subtilis 168 [1]; [7]) does the source give for CCC[C@@H]1C[C@@H](C(=O)N[C@@H]([C@H]2O[C@H](SC)[C@H](O)[C@@H](O)[C@H]2O)[C@@H](C)O)N(C)C1 [Lincomycin] + CC1=C\[C@@H](O)CC(=O)Cc2nc(co2)C(=O)N2CCC=C2C(=O)O[C@H](C(C)C)[C@H](C)/C=C/C(=O)NC\C=C\1 [Virginiamycin M1] here?
Answer: 0.945

Question: What about the fitness (B. subtilis 168 [1]; [8]) of the same molecule?
Answer: 0.936

Question: And the fitness (B. subtilis 168 [1]; [9])?
Answer: 0.922

Question: And the fitness (B. subtilis 168 [1]; [10])?
Answer: 0.91

Question: What about the fitness (B. subtilis 168 [1]; [11]) of the same molecule?
Answer: 0.925

Question: And the fitness (B. subtilis 168 [1]; [12])?
Answer: 0.949

Question: And the fitness (B. subtilis 168 [1]; [13])?
Answer: 0.99

Question: What about the fitness (B. subtilis 168 [1]; [14]) of the same molecule?
Answer: 0.871

Question: What about the fitness (B. subtilis 168 [1]; [15]) of the same molecule?
Answer: 0.985

Question: What about the fitness (S. aureus DSM 20231 [2]; [7]) of the same molecule?
Answer: 0.844

Question: What about the fitness (S. aureus DSM 20231 [2]; [8]) of the same molecule?
Answer: 0.857

Question: What about the fitness (S. aureus DSM 20231 [2]; [9]) of the same molecule?
Answer: 0.875

Question: What about the fitness (S. aureus DSM 20231 [2]; first compound 0.1 µg/mL, partner 0.5 µg/mL, one replicate) of the same molecule?
Answer: 0.878

Question: What about the fitness (S. aureus DSM 20231 [2]; first compound 0.1 µg/mL, partner 1 µg/mL, one replicate) of the same molecule?
Answer: 0.7

Question: And the fitness (S. aureus DSM 20231 [2]; [10])?
Answer: 0.73

Question: What about the fitness (S. aureus DSM 20231 [2]; [11]) of the same molecule?
Answer: 0.736

Question: And the fitness (S. aureus DSM 20231 [2]; [12])?
Answer: 0.7

Question: And the fitness (S. aureus DSM 20231 [2]; [16])?
Answer: 0.66

Question: What about the fitness (S. aureus DSM 20231 [2]; [17]) of the same molecule?
Answer: 0.486

Question: What about the fitness (S. aureus DSM 20231 [2]; [13]) of the same molecule?
Answer: 0.361

Question: And the fitness (S. aureus DSM 20231 [2]; [14])?
Answer: 0.242

Question: And the fitness (S. aureus DSM 20231 [2]; [15])?
Answer: 0.267

Question: And the fitness (S. aureus DSM 20231 [2]; [18])?
Answer: 0.3

Question: And the fitness (S. aureus DSM 20231 [2]; [19])?
Answer: 0.238

Question: And the fitness (S. pneumoniae D39V [3]; first compound 0.2 µg/mL, partner 0.15 µg/mL, one replicate)?
Answer: 0.807

Question: And the fitness (S. pneumoniae D39V [3]; first compound 0.2 µg/mL, partner 0.3 µg/mL, one replicate)?
Answer: 0.796

Question: And the fitness (S. pneumoniae D39V [3]; [16])?
Answer: 0.8

Question: And the fitness (S. pneumoniae D39V [3]; [17])?
Answer: 0.71

Question: And the fitness (S. pneumoniae D39V [3]; first compound 0.2 µg/mL, partner 2 µg/mL)?
Answer: 0.731

Question: What about the fitness (S. pneumoniae D39V [3]; first compound 0.215 µg/mL, partner 0.5 µg/mL) of the same molecule?
Answer: 0.857

Question: What about the fitness (S. pneumoniae D39V [3]; first compound 0.215 µg/mL, partner 1 µg/mL) of the same molecule?
Answer: 0.882

Question: And the fitness (S. pneumoniae D39V [3]; first compound 0.215 µg/mL, partner 2 µg/mL)?
Answer: 0.836

Question: And the fitness (S. pneumoniae D39V [3]; first compound 0.4 µg/mL, partner 0.15 µg/mL, one replicate)?
Answer: 0.694

Question: What about the fitness (S. pneumoniae D39V [3]; first compound 0.4 µg/mL, partner 0.3 µg/mL, one replicate) of the same molecule?
Answer: 0.657

Question: What about the fitness (S. pneumoniae D39V [3]; [18]) of the same molecule?
Answer: 0.761

Question: What about the fitness (S. pneumoniae D39V [3]; [19]) of the same molecule?
Answer: 0.655

Question: And the fitness (S. pneumoniae D39V [3]; first compound 0.4 µg/mL, partner 2 µg/mL)?
Answer: 0.642

Question: And the fitness (S. pneumoniae D39V [3]; first compound 0.43 µg/mL, partner 0.5 µg/mL)?
Answer: 0.73

Question: What about the fitness (S. pneumoniae D39V [3]; first compound 0.43 µg/mL, partner 1 µg/mL) of the same molecule?
Answer: 0.781

Question: What about the fitness (S. pneumoniae D39V [3]; first compound 0.43 µg/mL, partner 2 µg/mL) of the same molecule?
Answer: 0.741

Question: What about the fitness (S. pneumoniae D39V [3]; first compound 0.8 µg/mL, partner 0.15 µg/mL, one replicate) of the same molecule?
Answer: 0.596

Question: What about the fitness (S. pneumoniae D39V [3]; first compound 0.8 µg/mL, partner 0.3 µg/mL, one replicate) of the same molecule?
Answer: 0.573

Question: What about the fitness (S. pneumoniae D39V [3]; first compound 0.8 µg/mL, partner 0.5 µg/mL, one replicate) of the same molecule?
Answer: 0.449

Question: What about the fitness (S. pneumoniae D39V [3]; first compound 0.8 µg/mL, partner 1 µg/mL, one replicate) of the same molecule?
Answer: 0.416

Question: And the fitness (S. pneumoniae D39V [3]; first compound 0.8 µg/mL, partner 2 µg/mL)?
Answer: 0.333

Question: What about the fitness (S. pneumoniae D39V [3]; first compound 0.86 µg/mL, partner 0.5 µg/mL) of the same molecule?
Answer: 0.268

Question: What about the fitness (S. pneumoniae D39V [3]; first compound 0.86 µg/mL, partner 1 µg/mL) of the same molecule?
Answer: 0.207

Question: What about the fitness (S. pneumoniae D39V [3]; first compound 0.86 µg/mL, partner 2 µg/mL) of the same molecule?
Answer: 0.195

Question: What about the Bliss interaction score (B. subtilis 168 [4]) of the same molecule?
Answer: -0.0247

Question: What about the Bliss interaction score (S. aureus Newman) of the same molecule?
Answer: 0.0588

Question: And the Bliss interaction score (S. aureus DSM 20231 [5])?
Answer: -0.0744

Question: And the Bliss interaction score (S. pneumoniae D39V [6])?
Answer: -0.0882
